pIC50: −log10 of the molar value.
What follows are molecules tested against T1, truncated form of human Choline kinase α1 that includes residues 75-457 (Homo sapiens, UniProt P35790) (assay: Kinase Assay, coupled (ATP regeneration) LDH/PK assay, NADH absorbance). Details: not given.
T1 construct: made in house
T1 sequence (P35790 75-457): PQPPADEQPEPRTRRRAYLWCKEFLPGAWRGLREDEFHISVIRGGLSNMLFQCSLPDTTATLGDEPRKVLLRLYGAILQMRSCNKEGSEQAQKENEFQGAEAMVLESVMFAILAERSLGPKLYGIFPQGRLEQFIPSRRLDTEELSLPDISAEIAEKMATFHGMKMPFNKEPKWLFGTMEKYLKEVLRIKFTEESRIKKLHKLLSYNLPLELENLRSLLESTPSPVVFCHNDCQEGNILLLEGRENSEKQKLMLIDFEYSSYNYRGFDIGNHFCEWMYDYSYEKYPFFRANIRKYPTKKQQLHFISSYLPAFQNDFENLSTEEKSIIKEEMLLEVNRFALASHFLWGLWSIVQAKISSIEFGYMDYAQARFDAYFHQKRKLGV
Assay type: biochemical
Method: Absorbance of NADH (340 nm) was measured over 30 min using a SpectraMax M5 (Molecular Devices). Initial reaction velocity (ΔA340/Δt) was calculated and plotted as a function of inhibitor concentration in a 2-fold dilution series. IC50 values were obtained by fitting the relative velocities to a dose-response model.
For CN1CCCN(Cc2ccc(-c3ccc(C(=O)N4CCCC4)cc3)c(C#N)c2)CC1 [Example 26, 4-((4-methyl-1,4-diazepan-1-yl)methyl)-4′-(pyrrolidine-1-carbonyl)-[1,1′-biphenyl]-2-carbonitrile], the pIC50 was > 5.70. In the case of CN1CCCN(Cc2ccc(-c3ccc(CNP(C)(C)=O)cc3)c(C#N)c2)CC1 [Example 46, N-((2′-cyano-4′-((4-methyl-1,4-diazepan-1-yl)methyl)-[1,1′-biphenyl]-4-yl)methyl)-P,P-dimethylphosphinic amide], the pIC50 was > 6.30.

Same assay, conditions: Examples designated with an asterisk (*): version 1 of the Kinase Assay, 200 nM enzyme; read-out: IC50
With CN1CCCN(Cc2ccc(-c3cccc4ccccc34)cc2)CC1 [Example 136, 1-methyl-4-(4-(naphthalen-1-yl)benzyl)-1,4-diazepane] the pIC50 was > 4.30. In the case of CN1CCCN(Cc2ccc(-c3ccc(C(=O)O)cc3)cc2)CC1 [Example 159, 4′-((4-methyl-1,4-diazepan-1-yl)methyl)-[1,1′-biphenyl]-4-carboxylic acid], the pIC50 was > 4.30. In the case of CN1CCCN(Cc2ccc(N3CCS(=O)(=O)CC3)cc2)CC1 [Example 145, 4-(4-((4-methyl-1,4-diazepan-1-yl)methyl)phenyl)thiomorpholine 1,1-dioxide], the pIC50 was > 4.30. With CN1CCCN(Cc2ccc(-c3ccc(CC(=O)O)cc3)cc2)CC1 [Example 160, 2-(4′-((4-methyl-1,4-diazepan-1-yl)methyl)-[1,1′-biphenyl]-4-yl)acetic acid] the pIC50 was > 4.30. With CN1CCCN(Cc2ccc(-c3ccc(F)cc3)cc2)CC1 [Example 135, 1-((4′-fluoro-[1,1′-biphenyl]-4-yl)methyl)-4-methyl-1,4-diazepane] the pIC50 was > 4.30. For CN1CCCN(Cc2ccc(CN3CCN(CCO)CC3)cc2)CC1 [Example 147, 2-(4-(4-((4-methyl-1,4-diazepan-1-yl)methyl)benzyl)piperazin-1-yl)ethanol], the pIC50 was > 4.30.

Same assay, conditions: Examples not designated with an asterisk; footnote prints version 1 of the Kinase Assay; read-out: IC50
In the case of CN1CCCN(Cc2ccc(-c3ccc(C(=O)N4CCCN(C)CC4)cc3Br)c(C#N)c2)CC1 [Example 61, 2′-bromo-4-((4-methyl-1,4-diazepan-1-yl)methyl)-4′-(4-methyl-1,4-diazepane-1-carbonyl)[1,1′-biphenyl]-2-carbonitrile], the pIC50 was > 6.30. With CN1CCCN(Cc2ccc(-c3ccc(N)cc3)c(C#N)c2)CC1 [Example 113, 4′-amino-4-((4-methyl-1,4-diazepan-1-yl)methyl)-[1,1′-biphenyl]-2-carbonitrile] the pIC50 was > 5.70. With CN1CCCN(Cc2ccc(-c3ccc(C(N)=O)cc3F)c(C#N)c2)CC1 [Example 96, 2′-cyano-2-fluoro-4′-((4-methyl-1,4-diazepan-1-yl)methyl)-[1,1′-biphenyl]-4-carboxamide] the pIC50 was > 6.30. CN1CCCN(Cc2ccc(-c3ccc(C(=O)N4CCN(CCO)CC4)cc3)c(C#N)c2)CC1 [Example 18, 4′-(4-(2-hydroxyethyl)piperazine-1-carbonyl)-4-((4-methyl-1,4-diazepan-1-yl)methyl)-[1,1′-biphenyl]-2-carbonitrile] was tested, and the pIC50 was > 6.30. CN1CCCN(Cc2ccc(-c3ccc(C#N)cc3)c(C#N)c2)CC1 [Example 105, 4-((4-methyl-1,4-diazepan-1-yl)methyl)-[1,1′-biphenyl]-2,4′-dicarbonitrile] was tested, and the pIC50 was > 6.30. CC(=O)NCCc1ccc(-c2ccc(CN3CCCN(C)CC3)cc2C#N)cc1 [Example 95, N-(2-(2′-cyano-4′-((4-methyl-1,4-diazepan-1-yl)methyl)-[1,1′-biphenyl]-4-yl)ethyl)acetamide] was tested, and the pIC50 was > 6.30. CN1CCCN(Cc2ccc(-c3ccc(CC(=O)O)cc3)c(C#N)c2)CC1 [Example 127, 2-(2′-cyano-4′-((4-methyl-1,4-diazepan-1-yl)methyl)-[1,1′-biphenyl]-4-yl)acetic acid] was tested, and the pIC50 was > 4.30. CC(=O)NNC(=O)CCc1ccc(-c2ccc(CN3CCCN(C)CC3)cc2)cc1 [Example 122, N′-acetyl-3-(4′-((4-methyl-1,4-diazepan-1-yl)methyl)-[1,1′-biphenyl]-4-yl)propanehydrazide] was tested, and the pIC50 was > 5.70. For CN1CCCN(Cc2ccc(-c3ccc(-c4nnc(N)s4)cc3)cc2)CC1 [Example 116, 5-(4′-((4-methyl-1,4-diazepan-1-yl)methyl)-[1,1′-biphenyl]-4-yl)-1,3,4-thiadiazol-2-amine], the pIC50 was > 5.70. In the case of CN1CCCN(Cc2ccc(-c3cnc(N)nc3)c(C#N)c2)CC1 [Example 119, 2-(2-aminopyrimidin-5-yl)-5-((4-methyl-1,4-diazepan-1-yl)methyl)benzonitrile], the pIC50 was > 5.70. CN(C)Cc1ccc(-c2ccc(CN3CCCN(C)CC3)cc2C#N)cc1 [Example 12, 4′-((dimethylamino)methyl)-4-((4-methyl-1,4-diazepan-1-yl)methyl)-[1,1′-biphenyl]-2-carbonitrile] was tested, and the pIC50 was > 6.30. In the case of CN1CCCN(Cc2ccc(-c3ccc(-c4nnn[nH]4)cc3)cc2)CC1 [Example 129, 1-((4′-(1H-tetrazol-5-yl)-[1,1′-biphenyl]-4-yl)methyl)-4-methyl-1,4-diazepane], the pIC50 was > 4.30. CN1CCCN(Cc2ccc(-c3ccc(CN4CCCCC4)cc3)c(C#N)c2)CC1 [Example 13, 4-((4-methyl-1,4-diazepan-1-yl)methyl)-4′-(piperidin-1-ylmethyl)-[1,1′-biphenyl]-2-carbonitrile] was tested, and the pIC50 was > 5.70. In the case of CN1CCCN(Cc2ccc(-c3ccc(C(=O)N4CCCN(C)CC4)cc3)c(F)c2)CC1 [Example 58, (2′-fluoro-4′-((4-methyl-1,4-diazepan-1-yl)methyl)-[1,1′-biphenyl]-4-yl)(4-methyl-1,4-diazepan-1-yl)methanone], the pIC50 was > 6.30. For CN1CCCN(Cc2ccc(-c3cccc4ccccc34)c(C#N)c2)CC1 [Example 125, 5-((4-methyl-1,4-diazepan-1-yl)methyl)-2-(naphthalen-1-yl)benzonitrile], the pIC50 was > 4.30. With CN1CCCN(Cc2ccc(-c3ccc(C(=O)N(C)C)cc3)c(C#N)c2)CC1 [Example 20, 2′-cyano-N,N-dimethyl-4′-((4-methyl-1,4-diazepan-1-yl)methyl)-[1,1′-biphenyl]-4-carboxamide] the pIC50 was > 4.30. For CN1CCCN(Cc2ccc(-c3ccc(C(=O)O)cc3Br)c(C#N)c2)CC1 [Example 157, 2-bromo-2′-cyano-4′-((4-methyl-1,4-diazepan-1-yl)methyl)-[1,1′-biphenyl]-4-carboxylic acid], the pIC50 was > 4.30. With Cc1cc(C#N)ccc1-c1ccc(CN2CCCN(C)CC2)cc1C#N [Example 121, 2′-methyl-4-((4-methyl-1,4-diazepan-1-yl)methyl)-[1,1′-biphenyl]-2,4′-dicarbonitrile] the pIC50 was > 5.70. CC(=O)Nc1ccc(-c2ccc(CN3CCCN(C)CC3)cc2C#N)cn1 [Example 102, N-(5-(2-cyano-4-((4-methyl-1,4-diazepan-1-yl)methyl)phenyl)pyridin-2-yl)acetamide] was tested, and the pIC50 was > 6.30. With CN1CCCN(Cc2ccc(-c3ccc4ccccc4c3)c(C#N)c2)CC1 [Example 126, 5-((4-methyl-1,4-diazepan-1-yl)methyl)-2-(naphthalen-2-yl)benzonitrile] the pIC50 was > 4.30. For Cc1cc(S(=O)(=O)N(C)C)ccc1-c1ccc(CN2CCCN(C)CC2)cc1C#N [Example 98, 2′-cyano-N,N,2-trimethyl-4′-((4-methyl-1,4-diazepan-1-yl)methyl)-[1,1′-biphenyl]-4-sulfonamide], the pIC50 was > 6.30. With CN1CCCN(Cc2ccc(-c3ccc(CN4CCCN(C)CC4)cc3CNC=O)cc2)CC1 [Example 53, N-((4,4′-bis((4-methyl-1,4-diazepan-1-yl)methyl)-[1,1′-biphenyl]-2-yl)methyl)formamide] the pIC50 was > 6.30. CN1CCCN(Cc2ccc(-c3ccc(C(=O)N4CCN(C)CC4)cc3)c(C#N)c2)CC1 [Example 24, 4-((4-methyl-1,4-diazepan-1-yl)methyl)-4′-(4-methylpiperazine-1-carbonyl)-[1,1′-biphenyl]-2-carbonitrile] was tested, and the pIC50 was > 6.30. For COCCN1CCN(C(=O)c2ccc(-c3ccc(CN4CCCN(C)CC4)cc3C#N)cc2)CC1 [Example 21, 4′-(4-(2-methoxyethyl)piperazine-1-carbonyl)-4-((4-methyl-1,4-diazepan-1-yl)methyl)-[1,1′-biphenyl]-2-carbonitrile], the pIC50 was > 6.30. In the case of CN1CCCN(Cc2ccc(-c3ccc(C(=O)N4CCCN(C)CC4)cc3-c3ccccc3)c(C#N)c2)CC1 [Example 65, 4-((4-methyl-1,4-diazepan-1-yl)methyl)-4′-(4-methyl-1,4-diazepane-1-carbonyl)-[1,1′:2′,1″-terphenyl]-2-carbonitrile], the pIC50 was > 6.30. In the case of CN1CCCN(Cc2ccc(-c3ccc([N+](=O)[O-])cc3)c(C#N)c2)CC1 [Example 106, 4-((4-methyl-1,4-diazepan-1-yl)methyl)-4′-nitro-[1,1′-biphenyl]-2-carbonitrile], the pIC50 was > 6.30. For CN1CCCN(Cc2ccc(-c3cc[nH]c3)c(C#N)c2)CC1 [Example 117, 5-((4-methyl-1,4-diazepan-1-yl)methyl)-2-(1H-pyrrol-3-yl)benzonitrile], the pIC50 was > 5.70. CN1CCCN(Cc2ccc(-c3ccc(CN4CCCN(C)CC4)cc3CN)cc2)CC1 [Example 52, (4,4′-bis((4-methyl-1,4-diazepan-1-yl)methyl)-[1,1′-biphenyl]-2-yl)methanamine] was tested, and the pIC50 was > 6.30. With CN1CCCN(Cc2ccc(-c3cncc(N)c3)c(C#N)c2)CC1 [Example 124, 2-(5-aminopyridin-3-yl)-5-((4-methyl-1,4-diazepan-1-yl)methyl)benzonitrile] the pIC50 was > 4.30. Cc1cc(C(=O)N2CCCN(C)CC2)ccc1-c1ccc(CN2CCCN(C)CC2)cc1C#N [Example 60, 2′-methyl-4-((4-methyl-1,4-diazepan-1-yl)methyl)-4′-(4-methyl-1,4-diazepane-1-carbonyl)-[1,1′-biphenyl]-2-carbonitrile] was tested, and the pIC50 was > 5.70. In the case of CN1CCCN(Cc2ccc(-c3ccc(C(=O)N4CCCC(O)C4)cc3)c(C#N)c2)CC1 (stereo not drawn) [Example 23, 4′-(3-hydroxypiperidine-1-carbonyl)-4-((4-methyl-1,4-diazepan-1-yl)methyl)-[1,1′-biphenyl]-2-carbonitrile], the pIC50 was > 6.30.

— patent US9834521B2, “Choline kinase inhibitors” (ARIAD Pharmaceuticals, Inc., priority 2013, dated 2017)
